Measured values as given in patent US8420817B2, “Tricyclic N-heteroaryl-carboxamide derivatives, preparation and therapeutic use thereof” (Sanofi, priority 2007, dated 2013).

What was measured:
[1] = target: T1, TRPV1 receptors (Mus musculus, UniProt Q704Y3); assay: Pain induced by intraplantar administration of capsaicin in mice; assay type: in vivo; details: 30 mg/kg orally 120 minutes before intraplantar capsaicin, n=10
T1 construct: from tissue; host or cells: living mice, hind paw (in vivo behavioural test)
T1 sequence (Q704Y3 whole entry): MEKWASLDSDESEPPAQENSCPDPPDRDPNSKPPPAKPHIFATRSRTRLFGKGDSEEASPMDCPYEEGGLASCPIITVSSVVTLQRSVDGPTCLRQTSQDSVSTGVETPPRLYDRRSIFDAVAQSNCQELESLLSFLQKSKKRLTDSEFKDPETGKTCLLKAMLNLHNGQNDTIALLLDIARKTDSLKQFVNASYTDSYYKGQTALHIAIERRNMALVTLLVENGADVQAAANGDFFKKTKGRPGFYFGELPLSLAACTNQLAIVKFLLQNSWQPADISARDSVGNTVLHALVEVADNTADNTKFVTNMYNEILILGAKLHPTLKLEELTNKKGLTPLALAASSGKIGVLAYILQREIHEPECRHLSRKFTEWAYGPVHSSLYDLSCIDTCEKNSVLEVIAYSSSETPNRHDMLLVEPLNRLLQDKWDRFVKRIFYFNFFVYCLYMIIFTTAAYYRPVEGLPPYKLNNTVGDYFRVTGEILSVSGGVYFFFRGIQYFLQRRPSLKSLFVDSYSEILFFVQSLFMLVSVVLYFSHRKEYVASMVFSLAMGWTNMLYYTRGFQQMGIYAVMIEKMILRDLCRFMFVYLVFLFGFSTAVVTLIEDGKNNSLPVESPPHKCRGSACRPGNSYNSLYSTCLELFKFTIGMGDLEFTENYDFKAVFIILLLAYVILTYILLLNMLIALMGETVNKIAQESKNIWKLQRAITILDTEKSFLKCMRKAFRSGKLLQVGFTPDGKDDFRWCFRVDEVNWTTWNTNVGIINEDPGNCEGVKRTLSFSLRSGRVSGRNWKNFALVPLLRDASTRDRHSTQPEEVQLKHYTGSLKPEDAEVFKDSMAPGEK
Procedure: Pain Induced by Intraplantar Administration of Capsaicin in Mice
The intraplantar injection of capsaicin in mice rapidly produces a short-duration nociceptif behavior which is manifested in instances of licking, chewing and flexing of the treated paw. These nociceptive responses are probably linked to activation of the local TRPV1 receptors by the capsaicin.
(E)-capsaicin is initially diluted at 3 mg/ml in DMSO, then diluted again, for its final use, at 1.5 μg/20 μl in physiological saline. Administration of solvent has no effect at all on the behavior of the mouse. The capsaicin is injected into one of the hind paws of the animal, at the level of the upper face.
The compounds to be tested are administered orally 120 minutes prior to injection of capsaicin. […] The nociceptif behavior of the animals is then immediately evaluated by the person carrying out the experiment, and the duration of the behavioral manifestations induced by the capsaicin is recorded with a stop watch for a time of 2 minutes (licking and chewing, total or partial flexing of the injected paw).
For each compound an inhibition is determined which corresponds to the mean of the nociceptive responses induced by the capsaicin in response to a dose of test product (expressed in mg/kg) administered orally, on a sample of a specific number of mice (n).

[2] = target: T2, TRPV1 receptor (Rattus norvegicus, UniProt O35433); assay: Inhibition of the current induced by capsaicin on rat DRGs (whole-cell patch-clamp); assay type: cell-based; details: DRG neuron; compound at 10 nM; inhibition of the control capsaicin response; rat DRG neurons
T2 construct: The neurons of the DRG naturally express the TRPV1 receptor; endogenous in cells; host or cells: primary culture of newborn rat dorsal root ganglion neurons
T2 sequence (O35433 whole entry): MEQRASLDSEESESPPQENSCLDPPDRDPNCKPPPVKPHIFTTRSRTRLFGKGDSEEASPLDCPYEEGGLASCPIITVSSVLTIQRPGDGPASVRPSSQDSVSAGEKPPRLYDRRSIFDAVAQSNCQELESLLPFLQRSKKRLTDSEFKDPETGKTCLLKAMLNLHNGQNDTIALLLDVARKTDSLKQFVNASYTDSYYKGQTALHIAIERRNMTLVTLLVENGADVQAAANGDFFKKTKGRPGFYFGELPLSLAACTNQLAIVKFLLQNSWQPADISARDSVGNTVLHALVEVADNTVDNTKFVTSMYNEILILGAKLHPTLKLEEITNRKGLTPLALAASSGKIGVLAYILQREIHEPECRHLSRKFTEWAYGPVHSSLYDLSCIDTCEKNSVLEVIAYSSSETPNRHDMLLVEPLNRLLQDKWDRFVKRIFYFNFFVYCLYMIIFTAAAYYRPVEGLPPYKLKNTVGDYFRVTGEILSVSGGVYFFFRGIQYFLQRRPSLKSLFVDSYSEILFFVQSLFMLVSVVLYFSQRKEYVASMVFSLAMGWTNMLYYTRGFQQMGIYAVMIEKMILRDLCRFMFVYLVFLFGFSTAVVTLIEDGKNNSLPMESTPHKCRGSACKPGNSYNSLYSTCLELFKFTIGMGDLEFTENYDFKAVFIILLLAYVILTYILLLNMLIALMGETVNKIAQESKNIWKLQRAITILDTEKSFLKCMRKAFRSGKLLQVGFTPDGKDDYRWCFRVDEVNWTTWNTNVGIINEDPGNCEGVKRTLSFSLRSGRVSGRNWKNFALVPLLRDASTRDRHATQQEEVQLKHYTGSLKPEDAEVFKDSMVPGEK
Procedure: Test for Inhibition of the Current Induced by Capsaicin on Rat DRGs
• Primary culture of rat dorsal root ganglion (DRG) cells:
The neurons of the DRG naturally express the TRPV1 receptor.
Newborn rat DRG primary cultures are prepared from 1-day-old rat pups. Briefly, after dissection, the ganglia are trypsinized and the cells are mechanically dissociated by controlled trituration. The cells are resuspended in an Eagle's basal culture medium containing 10% of fetal calf serum, 25 mM KCl, 2 mM glutamine, 100 μg/ml gentamicin and 50 ng/ml of NGF, and then deposited onto laminin-coated glass cover slips (0.25×10^6 cells per cover slip) which are then placed in 12-well Corning dishes. The cells are incubated at 37° C. in a humidified atmosphere containing 5% CO2 and 95% air. […]
The measuring chambers (volume 800 μl) containing the cell preparation are placed on the platform of an inverted microscope (Olympus IMT2) equipped with Hoffman optics (Modulation Contrast, New York), and observed at the magnification of 400×. […] The overall currents (membrane potential fixed at −60 mV) are recorded with an Axopatch 1D amplifier (Axon Instruments, Foster City, Calif.), connected to a PC controlled by Pclamp8 software (Axon Instruments). The current traces are recorded on paper and simultaneously digitized (sampling frequency 15 to […]) and acquired on the hard drive of the PC. […]

SMILES | melting point | % inhibition of nociceptive responses induced by capsaicin [1] | inhibition at 0.01 µM [2]
O=C(Nc1cnc2c(c1)nc1n2CCC1O)c1cc2cc(C(F)(F)F)ccc2n1Cc1cccc(F)c1 (racemic) [Compound 29, N-(6-Hydroxy-7,8-dihydro-6H-pyrrolo[2′,1′:2,3]imidazo[4,5-b]pyridin-3-yl)-5-trifluoromethyl-1-(3-fluorobenzyl)-1H-indole-2-carboxamide] | 254 to 255 °C | 63% (+/−11%) | 
O=C(Nc1cnc2c(c1)nc1n2CCC1)c1cc2cc(F)ccc2n1Cc1cccc(F)c1 [Compound 1, N-(7,8-Dihydro-6H-pyrrolo[2′,1′:2,3]imidazo[4,5-b]pyridin-3-yl)-5-fluoro-1-(3-fluorobenzyl)-1H-indole-2-carboxamide] | 227 to 229 °C |  | 69%
